Assay results as given in patent US12285407B2, “Bis-indolylmethane derivatives and uses thereof” (The University of The West Indies, priority 2018, dated 2025).
Like-named read-outs stand apart in the source and are kept apart here.

Columns and labels:
[1] = system: MRSA; assay: Adjuvant broth microdilution (antibiotic MIC with SP-BIM at 50 μg/mL); type: cell-based, Staphylococcus aureus; conditions: Staphylococcus aureus, antibiotic alone, Table 4, read-out: MIC of antibiotic, No compound
[2] = system: Candida albicans; assay: Checkerboard synergy (FICI) of antibiotics with SP-BIM; set-up: MIC SP-BIM 13 only / MIC in combination: Antibiotic / MIC antibiotic only: unit not given beside the values
[3] = system: Escherichia coli; assay: microbe, parasite or virus in culture; type: cell-based; conditions: read-out: MIC of antibiotic, No compound
[4] = system: Streptococcus pneumoniae; assay: Checkerboard synergy (FICI) of antibiotics with SP-BIM; type: cell-based; conditions: for MIC: 24 h, antibiotic alone, read-out: MIC antibiotic only
[5] = system: Staphylococcus aureus; assay: as above; type: cell-based; conditions: Staphylococcus aureus, Staphylococcus aureus; for MIC: 24 h, antibiotic alone, read-out: MIC antibiotic only
[6] = system: Klebsiella pneumoniae; assay: Adjuvant broth microdilution (antibiotic MIC with SP-BIM at 50 μg/mL); type: cell-based; conditions: Klebsiella pneumoniae; antibiotic alone; Table 7; read-out: MIC of antibiotic, No compound
[7] = system: Bacillus cereus; assay: Checkerboard synergy (FICI) of antibiotics with SP-BIM; type: cell-based; conditions: for MIC: 24 h, antibiotic alone, read-out: MIC antibiotic only
[8] = system: Klebsiella pneumoniae; assay: as above; type: cell-based; conditions: for MIC: 24 h, antibiotic alone, read-out: MIC antibiotic only
[9] = system: Enterococcus faecium; assay: as above; type: cell-based; conditions: Enterococcus faecium, Enterococcus faecium; for MIC: 24 h, antibiotic alone, read-out: MIC antibiotic only
[10] = system: Escherichia coli; assay: as above; set-up: MIC SP-BIM 13 only / MIC in combination: Antibiotic: unit not given beside the values; conditions: for MIC: 24 h
[11] = MIC of the antibiotic in combination with SP-BIM 13
[12] = SP-BIM 13 in combination with the labelled antibiotic
[13] = Streptococcus pneumonia (title: Streptococcus pyogenes), antibiotic + SP-BIM 9
[14] = Streptococcus pneumoniae, antibiotic + SP-BIM 13
[15] = SP-BIM 9 in combination with the labelled antibiotic
[16] = antibiotic in combination with SP-BIM 9
[17] = antibiotic in combination with SP-BIM 13

COc1cc(Cc2cnc(N)nc2N)cc(OC)c1OC [Trimethoprim, trimethoprim]
MIC [1]: 250 µg/mL
MIC ([2]; 24 h, read-out: MIC antibiotic only): > 250 µg/mL
MIC in combination: Antibiotic [2, 11]: 250
FIC of SP-BIM 13 [2, 12]: 1.0
Interpretation ([2]; antibiotic + SP-BIM 13): Indifferent (Indifferent: FICI>1.0-4.0)
Σ FIC ([2]; antibiotic + SP-BIM 13): <2.0
FIC of antibiotic ([2]; combination with SP-BIM 13): 1.0
MIC [3]: 2 µg/mL
FIC of SP-BIM 9 ([4]; Streptococcus pneumonia (title: Streptococcus pyogenes), SP-BIM 9 in combination with the labelled antibiotic): 0.06
Interpretation [4, 13]: Synergy (Synergy: FICI≤0.5)
Σ FIC [4, 13]: <0.31
MIC in combination, Antibiotic ([4]; Streptococcus pneumonia (title: Streptococcus pyogenes), antibiotic in combination with SP-BIM 9): 8 µg/mL
FIC of antibiotic ([4]; Streptococcus pneumonia (title: Streptococcus pyogenes), in combination with SP-BIM 9): 0.25
MIC ([4]; Streptococcus pneumoniae, Streptococcus pneumonia (title: Streptococcus pyogenes), SP-BIM 9 checkerboard): 32 µg/mL
MIC ([4]; Streptococcus pneumoniae, Streptococcus pneumoniae, SP-BIM 13 checkerboard): 32 µg/mL
FIC of SP-BIM 13 ([4]; Streptococcus pneumoniae, SP-BIM 13 in combination with the labelled antibiotic): 1.0
Interpretation [4, 14]: Antagonistic (Antagonistic: FICI≥4.0)
Σ FIC [4, 14]: <4.9
MIC in combination, Antibiotic ([4]; Streptococcus pneumoniae, antibiotic in combination with SP-BIM 13): 125 µg/mL
FIC of antibiotic ([4]; Streptococcus pneumoniae, in combination with SP-BIM 13): 3.9
MIC ([5]; SP-BIM 9 checkerboard): 1 µg/mL
MIC ([5]; SP-BIM 13 checkerboard): 1 µg/mL
FIC of SP-BIM 9 [5, 15]: 0.02
FIC of SP-BIM 13 [5, 12]: 0.5
Interpretation ([5]; antibiotic + SP-BIM 9): Indifferent (Indifferent: FICI>1.0-4.0)
Σ FIC ([5]; antibiotic + SP-BIM 9): <2.02
Interpretation ([5]; antibiotic + SP-BIM 13): Antagonistic (Antagonistic: FICI≥4.0)
Σ FIC ([5]; antibiotic + SP-BIM 13): 4.5
MIC in combination, Antibiotic [5, 16]: 2.0 µg/mL
MIC in combination, Antibiotic [5, 17]: 4 µg/mL
FIC of antibiotic ([5]; in combination with SP-BIM 9): 2.00
FIC of antibiotic ([5]; in combination with SP-BIM 13): 4.0
MIC [6]: 16 µg/mL
MIC ([7]; SP-BIM 9 checkerboard): > 250 µg/mL
MIC ([7]; SP-BIM 13 checkerboard): 250 µg/mL
MIC in combination, SP-BIM 9 ([7]; SP-BIM 9 concentration in combination with the labelled antibiotic): 16 µg/mL
FIC of SP-BIM 9 [7, 15]: 0.064
FIC of SP-BIM 13 [7, 12]: 1.0
Interpretation ([7]; antibiotic + SP-BIM 9): Synergy (Synergy: FICI≤0.5)
Σ FIC ([7]; antibiotic + SP-BIM 9): <0.1
Interpretation ([7]; antibiotic + SP-BIM 13): Indifferent (Indifferent: FICI>1.0-4.0)
Σ FIC ([7]; antibiotic + SP-BIM 13): 2.0
MIC in combination, Antibiotic [7, 16]: 2 µg/mL
MIC in combination, Antibiotic [7, 17]: 250 µg/mL
FIC of antibiotic ([7]; in combination with SP-BIM 9): 0.008
FIC of antibiotic ([7]; in combination with SP-BIM 13): 1.00
MIC ([8]; SP-BIM 9 checkerboard): 8 µg/mL
MIC ([8]; SP-BIM 13 checkerboard): 8 µg/mL
FIC of SP-BIM 9 [8, 15]: 0.5
FIC of SP-BIM 13 [8, 12]: 1.0
Interpretation ([8]; antibiotic + SP-BIM 9): Indifferent (Indifferent: FICI>1.0-4.0)
Σ FIC ([8]; antibiotic + SP-BIM 9): <1.5
Interpretation ([8]; antibiotic + SP-BIM 13): Indifferent (Indifferent: FICI>1.0-4.0)
Σ FIC ([8]; antibiotic + SP-BIM 13): <3.0
MIC in combination, Antibiotic [8, 16]: 8 µg/mL
MIC in combination, Antibiotic [8, 17]: 16 µg/mL
FIC of antibiotic ([8]; in combination with SP-BIM 9): 1
FIC of antibiotic ([8]; in combination with SP-BIM 13): 2.0
MIC ([9]; SP-BIM 9 checkerboard): 4 µg/mL
MIC ([9]; SP-BIM 13 checkerboard): 4 µg/mL
FIC of SP-BIM 13 [9, 12]: 1.0
Interpretation ([9]; antibiotic + SP-BIM 13): Antagonistic (Antagonistic: FICI≥4.0)
Σ FIC ([9]; antibiotic + SP-BIM 13): 5.0
MIC in combination, Antibiotic [9, 17]: 16 µg/mL
FIC of antibiotic ([9]; in combination with SP-BIM 13): 4.0
MIC ([10]; read-out: MIC antibiotic only, Escherichia coli, antibiotic alone): 2 µg/mL
MIC ([10]; read-out: MIC antibiotic only, Escherichia coli, antibiotic alone, SP-BIM 9 checkerboard): 2 µg/mL
MIC in combination: Antibiotic [10, 11]: 8
FIC of SP-BIM 9 [10, 15]: 0.128
FIC of SP-BIM 13 [10, 12]: 1.0
Interpretation ([10]; antibiotic + SP-BIM 9): Antagonistic (Antagonistic: FICI≥4.0)
Σ FIC ([10]; antibiotic + SP-BIM 9): <4.1
Interpretation ([10]; antibiotic + SP-BIM 13): Antagonistic (Antagonistic: FICI≥4.0)
Σ FIC ([10]; antibiotic + SP-BIM 13): <5.0
MIC in combination, Antibiotic [10, 16]: 8 µg/mL
FIC of antibiotic ([10]; combination with SP-BIM 13): 4.0
FIC of antibiotic ([10]; in combination with SP-BIM 9): 4
